Patent US20130060022A1, “Compounds useful for treating neurodegenerative disorders” (priority 2011, published 2013)
Where two headings read alike, the source gives them in different places.

Tests used:
Assay type in all cases: cell-based
Settings in all cases: Homo sapiens, 5 hours at 37° C., 1% DMSO
Aβ-38 = Aβ-38 level in conditioned media of 2B7 cells (MSD 3-PLEX ELISA)
Description: (§1) Assays were conducted to determine the ability of a Compound of Formula I to modulate […], and Aβ-38.
(§2) Human (6E10) Ab 3-PLEX ELISA kits were purchased from Meso Scale Discovery Labs, 9328 Gaither Road, Gaithersburg, Md. 20877 (Catalog Number K15148E-3). Plates with capture antibodies were blocked for 1-2 hours at room temperature with 150 μL of the manufactures blocking reagent.
(§3) Cultured 2B7 cells in 96 well plate with 250 μL of media per well until confluent;
(§4) Prepared serial dilutions of compounds in DMSO at 100× the final desired concentration;
(§5) Washed wells with 2B7 cells 1× with 250 μL of media;
(§6) Diluted DMSO stocks 1:100 into media:
(§7) Added 250 μL of media containing compounds (1% DMSO) to wells with 2B7 cells for 5 hours at 37° C.
(§8) Diluted conditioned media: 1 part media with 1% DMSO and 1 part blocking buffer;
(§9) 150 μL of the 250 μL of conditioned media were used.
(§10) Seven point standard curve samples were prepared that contained Aβ-42, Aβ-40, and Aβ-38. The highest concentration of Aβ-42 and Aβ-38 was […] and the highest concentration of Aβ-40 was 10,000 pg/mL. Subsequent serial dilutions were 1:3 and the final composition of each sample was 1 part blocking buffer and 1 part cell medium containing 1% DMSO.
(§11) Blocked plates are washed 5× with MSD wash buffer with a plate washer;
(§12) 25 μL of detection antibody and blocker G reagent in MSD blocking solution was added;
(§13) 25 μL of samples (1 part conditioned media containing 1% DMSO and 1 part MSD blocking buffer) were then added;
(§14) Plates were incubated overnight at 4 degrees C. or 2 hours at room temperature.
(§15) Washed wells 5× with MSD wash buffer;
(§16) Added 150 μL 2×MSD read buffer;
(§17) Aβ peptide levels for each peptide were calculated from the standard curve using the MSD software provided with the MSD 2400 Imager. Percent vehicle values for each compound dosage were then calculated and fit to a 4 parameter curve generating IC50 values.

Aβ-42 = Aβ-42 level in conditioned media of 2B7 cells (MSD 3-PLEX ELISA)
Description: as §1, §2, §3, §4, §5, §6, §7, §8, §9, §10, §11, §12, §13, §14, §15, §16, §17

Aβ-40 = Aβ-40 level in conditioned media of 2B7 cells (MSD 3-PLEX ELISA)
Description: as §1, §2, §3, §4, §5, §6, §7, §8, §9, §10, §11, §12, §13, §14, §15, §16, §17

[1] = inflection of dose-response curve, read-out: Aβ 38 DR IC50 Inflection
[2] = inflection of dose-response curve, read-out: Aβ 42 DR IC50 Inflection
[3] = inflection of dose-response curve, read-out: Aβ 40 DR IC50 Inflection

SMILES	IC50 (Aβ-38; [1]) [nM]	IC50 (Aβ-38; read-out: Aβ 38 IC50) [nM]	IC50 (Aβ-42; [2]) [nM]	IC50 (Aβ-42; read-out: Aβ 42 IC50) [nM]	IC50 (Aβ-40; [3]) [nM]	IC50 (Aβ-40; read-out: Aβ 40 IC50) [nM]
CC(C)[C@@H](OC(=O)N1CCC1)[C@H]1C[C@@H](C)[C@H]2[C@H](O1)[C@H](O)[C@@]1(C)[C@@H]3CC[C@H]4C(C)(C)[C@@H](OC(=O)N(C)C5CN(C)C5)CC[C@@]45C[C@@]35CC[C@]21C [Compound I-11]	100 to 500	100 to 500	< 100	< 100	> 5000	> 5000
CC(C)[C@@H](OC(=O)N1CCC1)[C@H]1C[C@@H](C)[C@H]2[C@H](O1)[C@H](O)[C@@]1(C)[C@@H]3CC[C@H]4C(C)(C)[C@@H](OC(=O)N5CC[C@H](C(=O)O)C5)CC[C@@]45C[C@@]35CC[C@]21C [Compound I-1]	–	1000 to 5000	1000 to 5000	1000 to 5000	> 5000	> 5000
CC(C)[C@@H](OC(=O)N1CCC1)[C@H]1C[C@@H](C)[C@H]2[C@H](O1)[C@H](O)[C@@]1(C)[C@@H]3CC[C@H]4C(C)(C)[C@@H](OC(=O)N5CCN(C6COC6)CC5)CC[C@@]45C[C@@]35CC[C@]21C [Compound I-14]	–	501 to 1000	–	501 to 1000	–	–
CC(C)[C@@H](OC(=O)N1CCC1)[C@H]1C[C@@H](C)[C@H]2[C@H](O1)[C@H](O)[C@@]1(C)[C@@H]3CC[C@H]4C(C)(C)[C@@H](OC(=O)N5CC[C@@H](C(=O)O)C5)CC[C@@]45C[C@@]35CC[C@]21C [Compound I-10]	–	1000 to 5000	–	1000 to 5000	–	> 5000
CC(C)[C@@H](OC(=O)N1CCC1)[C@H]1C[C@@H](C)[C@H]2[C@H](O1)[C@H](O)[C@@]1(C)[C@@H]3CC[C@H]4C(C)(C)[C@@H](OC(=O)N[C@H]5CCCNC5=O)CC[C@@]45C[C@@]35CC[C@]21C [Compound I-6]	100 to 500	100 to 500	–	100 to 500	> 5000	> 5000
CC(C)[C@@H](OC(=O)N1CCC1)[C@H]1C[C@@H](C)[C@H]2[C@H](O1)[C@H](O)[C@@]1(C)[C@@H]3CC[C@H]4C(C)(C)[C@@H](OC(=O)N5CC(CNS(=O)(=O)C(F)(F)F)C5)CC[C@@]45C[C@@]35CC[C@]21C [Compound I-9]	–	1000 to 5000	–	1000 to 5000	–	–
CC(C)[C@@H](OC(=O)N1CCC1)[C@H]1C[C@@H](C)[C@H]2[C@H](O1)[C@H](O)[C@@]1(C)[C@@H]3CC[C@H]4C(C)(C)[C@@H](OC(=O)N[C@@H]5CCNC5=O)CC[C@@]45C[C@@]35CC[C@]21C [Compound I-5]	100 to 500	100 to 500	–	100 to 500	> 5000	> 5000
COCCN1CCN(C(=O)O[C@H]2CC[C@]34C[C@]35CC[C@]3(C)[C@@H]6[C@H](O[C@@H]([C@H](OC(=O)N7CCC7)C(C)C)C[C@H]6C)[C@H](O)[C@@]3(C)[C@@H]5CC[C@H]4C2(C)C)CC1 [Compound I-12]	–	1000 to 5000	–	501 to 1000	–	> 5000
CC(C)[C@@H](OC(=O)N1CCC1)[C@H]1C[C@@H](C)[C@H]2[C@H](O1)[C@H](O)[C@@]1(C)[C@@H]3CC[C@H]4C(C)(C)[C@@H](OC(=O)N[C@@H](C)C(=O)O)CC[C@@]45C[C@@]35CC[C@]21C [Compound I-4]	501 to 1000	1000 to 5000	–	501 to 1000	–	> 5000
CC(C)[C@@H](OC(=O)N1CCC1)[C@H]1C[C@@H](C)[C@H]2[C@H](O1)[C@H](O)[C@@]1(C)[C@@H]3CC[C@H]4C(C)(C)[C@@H](OC(=O)N[C@@H]5CCCNC5=O)CC[C@@]45C[C@@]35CC[C@]21C [Compound I-3]	1000 to 5000	501 to 1000	100 to 500	100 to 500	> 5000	> 5000
CC(C)[C@@H](OC(=O)N1CCC1)[C@H]1C[C@@H](C)[C@H]2[C@H](O1)[C@H](O)[C@@]1(C)[C@@H]3CC[C@H]4C(C)(C)[C@@H](OC(=O)NCCC(=O)O)CC[C@@]45C[C@@]35CC[C@]21C [Compound I-8]	501 to 1000	501 to 1000	501 to 1000	501 to 1000	–	> 5000
CC(C)[C@@H](OC(=O)N1CCC1)[C@H]1C[C@@H](C)[C@H]2[C@H](O1)[C@H](O)[C@@]1(C)[C@@H]3CC[C@H]4C(C)(C)[C@@H](OC(=O)N[C@H]5CCNC5=O)CC[C@@]45C[C@@]35CC[C@]21C [Compound I-2]	–	501 to 1000	–	100 to 500	–	> 5000
CC(C)[C@@H](OC(=O)N1CCC1)[C@H]1C[C@@H](C)[C@H]2[C@H](O1)[C@H](O)[C@@]1(C)[C@@H]3CC[C@H]4C(C)(C)[C@@H](OC(=O)N5CCNC(C(F)(F)F)C5)CC[C@@]45C[C@@]35CC[C@]21C (stereo partly drawn) [Compound I-13]	–	1000 to 5000	–	1000 to 5000	–	–
CC(C)[C@@H](OC(=O)N1CCC1)[C@H]1C[C@@H](C)[C@H]2[C@H](O1)[C@H](O)[C@@]1(C)[C@@H]3CC[C@H]4C(C)(C)[C@@H](OC(=O)N(C)CC(=O)O)CC[C@@]45C[C@@]35CC[C@]21C [Compound I-15]	–	501 to 1000	–	100 to 500	–	> 5000
